Results from US7479471B2, “2-Amino-4-bicyclylamino-6H-1,3,5-triazines, processes for their preparation and their use as herbicides and plant growth regulators” (Bayer CropScience GmbH, priority 2002, dated 2009).

Assays:
Type in all cases: in vivo
crop plants = experiment: Crop plant tolerance (greenhouse, pre- and post-emergence); conditions: visual scoring four to five weeks after application
Description: In further greenhouse experiments, seeds of a relatively large number of crop plants and weeds are placed in sandy loam and covered with soil. Some of the pots are treated immediately as described in Section 1, while the remaining pots are placed in the greenhouse until the plants have developed two to three real leaves, and they are then sprayed with various dosages of substances of the formula (I) according to invention as described in Section 2. Four to five weeks after the application and standing time in the greenhouse, it is found by means of visual scoring that the compounds according to the invention leave dicotyledonous crops such as, for example, soybeans, cotton, oilseed rape, sugar beet and potatoes unharmed when applied pre- and post-emergence, even at high rates of active compound. In addition, some substances also leave graminaceous crops such as, for example, barley, wheat, rye, sorghum, corn or rice, unharmed.

[1] = system: monocotyledonous and dicotyledonous weeds; experiment: Post-emergence herbicidal action (greenhouse pot test); conditions: post-emergence method; application rate of 0.5 kg or less of active substance per hectare; scored after approx. 3 to 4 weeks; Sinapis alba, Echinochloa crus-galli, Lolium multiflorum, Chrysanthemum segetum, Setaria spp., Abutilon theophrasti, Amaranthus retroflexus, Panicum miliaceum, Avena sativa
Description: Seeds or rhizone pieces of monocotyledonous and dicotyledonous weeds are placed in sandy loam in plastic pots, covered with soil and grown in the greenhouse under good growth conditions. Three weeks after sowing, the test plants are treated at the three-leaf stage. Various dosages of the compounds according to the invention, which are formulated as wettable powders or emulsion concentrates, are sprayed onto the green plant parts at an application rate of 600 to 800 l of water per ha (converted), and after the test plants have been left to stand in the greenhouse for approx. 3 to 4 weeks under optimum growth conditions, the effect of the preparations is scored visually by comparison with untreated controls. The compositions according to the invention also have good herbicidal post-emergence activity against a broad spectrum of economically important weed grasses and broad-leaved weeds.

[2] = system: monocotyledonous and dicotyledonous weed plants; experiment: Pre-emergence herbicidal action (greenhouse pot test); conditions: pre-emergence method; application rate of 0.5 kg and less of active substance per hectare; Sinapis alba, Chrysanthemum segetum, Avena sativa, Stellaria media, Echinochloa crus-galli, Lolium multiflorum, Setaria spp., Abutilon theophrasti, Amaranthus retrofluxus, Panicum miliaceum
Excerpt: Seeds or rhizome pieces of monocotyledonous and dicotyledonous weed plants are placed in sandy loam in plastic pots and covered with soil. The compounds according to the invention, which are formulated in the form of wettable powders or emulsion concentrates, are then applied to the surface of the soil cover as aqueous suspension or emulsion at various dosages with an application rate of 600 to 800 l of water/ha (converted).
After the treatment, the pots are placed into a greenhouse and kept under good growth conditions for the weeds. The plant or emergence damage is scored visually after the untreated controls have emerged. As shown by the test results, the compounds according to the invention have good herbicidal pre-emergence activity against a broad spectrum of weed grasses and broad-leaved weeds.

[3] = system: harmful plants which are typical for rice crops; experiment: Action against harmful plants in rice (paddy rice conditions); conditions: applied to the paddy water; approximately three weeks after application; Cyperus monti, Echinochloa crus-galli, Eleocharis acicularis, Sagittaria pygmaea; also: test concentration or dose not given here
Description: Transplanted and seeded rice and typical rice weeds are grown in the greenhouse until they have reached the three-leaf stage (Echinochloa 1.5-leaves) under paddy rice conditions (flooding level of the water: 2-3 cm) in closed plastic pots. They are then treated with the compounds according to the invention. To this end, the formulated active substances are suspended, dissolved or emulsified in water and applied to the paddy water of the test plants at various dosages by application by pouring.
After the treatment has been carried out in this way, the test plants are placed into the greenhouse under optimum growth conditions and are kept in this way over the entire experimental period.

| Compound | selectivity (crop plants versus weeds) (crop plants) | herbicidal action against harmful plants, scored visually [1] | herbicidal action against harmful plants, scored visually [2] | herbicidal action against harmful plants typical for rice crops, scored visually [3] |
| --- | --- | --- | --- | --- |
| Cc1cc(C)c2c(c1)C(Nc1ncnc(N)n1)CCC2 (stereo not drawn) [Example 1] | in some cases high selectivity | very good herbicidal action | very good herbicidal action | very good herbicidal action |
| Cc1cc(C)c2c(c1)C(Nc1ncnc(N)n1)CCO2 (stereo not drawn) [Example 4] | in some cases high selectivity | very good herbicidal action | very good herbicidal action | very good herbicidal action |
| Cc1cccc2c1OCCC2Nc1ncnc(N)n1 (stereo not drawn) [Example 5] | in some cases high selectivity | very good herbicidal action | very good herbicidal action | very good herbicidal action |
| Cc1ccc2c(c1C)CCCC2Nc1ncnc(N)n1 (stereo not drawn) [Example 19] | in some cases high selectivity | very good herbicidal action | very good herbicidal action | very good herbicidal action |
| CC1Cc2cc(F)ccc2C1Nc1ncnc(N)n1 (stereo not drawn) [Example 55] | in some cases high selectivity | very good herbicidal action | very good herbicidal action | very good herbicidal action |
| CC1Cc2cc(Cl)ccc2C1Nc1ncnc(N)n1 (stereo not drawn) [Example 58] | in some cases high selectivity | very good herbicidal action | very good herbicidal action | very good herbicidal action |
| Cc1cc(C)c2c(c1)C(Nc1ncnc(N)n1)CCS2 (stereo not drawn) [Example 79] | in some cases high selectivity | very good herbicidal action | very good herbicidal action | very good herbicidal action |
| Cc1ccc2c(c1)C(Nc1ncnc(N)n1)CC2 (stereo not drawn) [Example 146] | in some cases high selectivity | very good herbicidal action | very good herbicidal action | very good herbicidal action |
| Nc1ncnc(NC2CCc3ccccc32)n1 (stereo not drawn) [Example 185] | in some cases high selectivity | very good herbicidal action | very good herbicidal action | very good herbicidal action |
| CC1Cc2ccccc2C1Nc1ncnc(N)n1 (stereo not drawn) [Example 198] | in some cases high selectivity | very good herbicidal action | very good herbicidal action | very good herbicidal action |
| Cc1ccc2c(c1)C(Nc1ncnc(N)n1)C(C)C2 (stereo not drawn) [Example 281] | in some cases high selectivity | very good herbicidal action | very good herbicidal action | very good herbicidal action |
| CC1Cc2ccc(F)cc2C1Nc1ncnc(N)n1 (stereo not drawn) [Example 282] | in some cases high selectivity | very good herbicidal action | very good herbicidal action | very good herbicidal action |
| CC(=O)Nc1ncnc(NC2c3cc(F)ccc3CC2C)n1 (stereo not drawn) [Example 283] | in some cases high selectivity | very good herbicidal action | very good herbicidal action | very good herbicidal action |
| CC1Cc2ccc(F)cc2C1Nc1ncnc(NC(=O)C(F)(F)F)n1 (stereo not drawn) [Example 285] | in some cases high selectivity | very good herbicidal action | very good herbicidal action | very good herbicidal action |
| CC1Cc2ccc(F)cc2C1Nc1ncnc(NC(=O)CCl)n1 (stereo not drawn) [Example 286] | in some cases high selectivity | very good herbicidal action | very good herbicidal action | very good herbicidal action |
| Cc1cc(F)cc2c1OCCC2Nc1ncnc(N)n1 (stereo not drawn) [Example 288] | in some cases high selectivity | very good herbicidal action | very good herbicidal action | very good herbicidal action |
| Nc1ncnc(NC2CCOc3ccc(F)cc32)n1 (stereo not drawn) [Example 289] | in some cases high selectivity | very good herbicidal action | very good herbicidal action | very good herbicidal action |
| Cc1cccc2c1C(Nc1ncnc(N)n1)C(C)C2 (stereo not drawn) [Example 290] | in some cases high selectivity | very good herbicidal action | very good herbicidal action | very good herbicidal action |
| CCC1Cc2ccc(C)cc2C1Nc1ncnc(N)n1 (stereo not drawn) [Example 291] | in some cases high selectivity | very good herbicidal action | very good herbicidal action | very good herbicidal action |
| Cc1ccc2c(c1)C(Nc1ncnc(N)n1)C(C)(C)C2 (stereo not drawn) [Example 292] | in some cases high selectivity | very good herbicidal action | very good herbicidal action | very good herbicidal action |
| Cc1cc2c(cc1C)C(Nc1ncnc(N)n1)C(C)C2 (stereo not drawn) [Example 293] | in some cases high selectivity | very good herbicidal action | very good herbicidal action | very good herbicidal action |
